Several values for one entry are separate records, joined by “and”; a condition that tells them apart may be missing. Equal values may be shown once. Read-outs that look alike come from different tables or passages of the source.

As usually defined, the mortality is the share of the test organisms that died.

Series [1] has as its system cabbage looper.
The test system of series [2] is Yersinia entomophaga. Briefly: CFU counts after exposure of Yersinia entomophaga to insecticides. The format is cell-based. To be noted: 1 hour contact. An excerpt:
To test combinations of Yersinia entomophaga and pesticides for their ability to produce a pesticidal effect, or an effect on plant growth or yield, we first put various insecticides in contact with Yersinia to identify insecticides that had minimal toxicity to Yersinia entomophaga. The logic was that, if Yersinia entomophaga is to function well in combination with a chemical insecticide, the chemical insecticide would ideally have low or no effect on the ability of Yersinia entomophaga to survive, grow and/or to function.
To perform this study, we selected amounts of various insecticides based on the percent of the specific insecticide in the insecticide composition obtained from a manufacturer. We also considered the application rate of the particular insecticide, as recommended by the manufacturer. […] Generally, the 1× amount was considered possibly the lowest amount of insecticide that may be considered as an effective amount for use in the combinations disclosed herein. For each insecticide, we also used a higher amount of insecticide (generally a 5× or 10× amount).
The 1× and 5×/10× amounts of each insecticide were added to tubes along with 1 ml of ethyl acetate. The tubes were mixed until the insecticides dissolved. The tubes were left open in a fume hood overnight to allow the ethyl acetate to evaporate. The insecticide remained in the tubes, as a solid coat on the interior surface of the tubes.
A growing culture of Yersinia entomophaga, grown in LB medium, was diluted and 1 ml of the diluted culture was added to each tube containing the dried insecticide. The tubes were mixed and then left on the bench top for 1 hour. Then, 100 μl from each tube was plated onto LB plates in triplicate in CFU assays. Plates were incubated at 25° C. for 48 hours and colonies were counted.

Series [3] deals with tobacco budworm.
The subject of series [4] is fall armyworm. To be noted: fipronil 12 mg/L.
Experimental: To produce cell free filtrates, cultures of Yersinia entomophaga grown in LB medium were centrifuged at 11,448 (g) for 10 minutes. The supernatant was decanted from the centrifuged pellet and filtered through a 0.22 μm filter. Assays were performed to determine concentrations of Yen-TC (toxin complex) using ELISA, and chitinase by measuring chitinase activity on specific substrates. […] This was done to estimate relative potency of the cell free filtrates. Insects were first pre-screened with a range of dilutions of cell free filtrates to select a concentration that provided moderate activity. […] Based on these initial screens, undiluted cell free filtrate was used for cabbage looper, fall armyworm, black cutworm, and Colorado potato beetle.
Cabbage leaf disks were dipped in either acetone (controls and Y. entomophaga alone treatments) or fipronil (Sigma 46451) at 12 mg/L in acetone. These were set to dry for 1 hr. […] After the cabbage disks had dried for 1 hr, a single 3rd instar fall armyworm was added to each individual cabbage disk. A total of 20 insects were evaluated for each treatment. Insects were observed daily and scored as live or dead.
Cabbage leaf disks were dipped in either acetone (controls and Y. entomophaga alone treatments) or esfenvalerate (Sigma 46277) at 56 mg/L in acetone. These were set to dry for 1 hr. […] After the cabbage disks had dried for 1 hr, a single 3rd instar fall armyworm was added to each individual cabbage disk. A total of 20 insects were evaluate for each treatment. Insects were observed daily and scored as live or dead.
In series [5] the test system is fall armyworm. Briefly: Leaf disk mortality assay, Y. entomophaga cells with chemical insecticides. As to conditions: for mortality at 4 µg/mL: Spodoptera frugiperda, foliar; for % Mort. Chem. / LT50 Chem.: fall armyworm.
Series [6] deals with diamondback moth. Kind of series: whole plant or invertebrate. As to conditions: indoxacarb […].
From the text: (§1) These were set to dry for 1 hr.
as §1
These were set to dry for 1 hr. Cabbage disks were then dipped in either 1% Luria broth (LB) media solution (controls and thiacloprid alone treatments) or in 1% cell free filtrate from a culture Y. entomophaga isolate O24G3R (Y. entomophaga alone or in combination with thiacloprid treatments).

The test system of series [7] is cabbage looper. As to conditions: for LT50 Chem. / % Mort. Chem.: Cabbage Looper.
Series [8] concerns black cutworm. Briefly: Leaf disk mortality assay, Y. entomophaga cells with chemical insecticides.
The test system of series [9] is black cutworm. As to conditions: indoxacarb 0.53 mg/L.
Experimental: To produce cell free filtrates, cultures of Yersinia entomophaga grown in LB medium were centrifuged at 11,448 (g) for 10 minutes. The supernatant was decanted from the centrifuged pellet and filtered through a 0.22 μm filter. Assays were performed to determine concentrations of Yen-TC (toxin complex) using ELISA, and chitinase by measuring chitinase activity on specific substrates. […] This was done to estimate relative potency of the cell free filtrates. Insects were first pre-screened with a range of dilutions of cell free filtrates to select a concentration that provided moderate activity. […] Based on these initial screens, undiluted cell free filtrate was used for cabbage looper, fall armyworm, black cutworm, and Colorado potato beetle. […] In each of the Examples below, this is expressed as 1%.
Cabbage leaf disks were dipped in either acetone (controls and Y. entomophaga alone treatments) or in indoxacarb (Sigma 33969) at 0.53 mg/L in acetone. These were set to dry for 1 hr. […] After the cabbage disks had dried for 1 hr, a single 2nd instar black cutworm was added to each individual cabbage disk. A total of 20 insects were evaluate for each treatment. Insects were observed daily and scored as live or dead.
Cabbage leaf disks were dipped in either acetone (controls and Y. entomophaga alone treatments) or in flubendiamide (Sigma 32801) at 0.59 mg/L in acetone. These were set to dry for 1 hr. […] After the cabbage disks had dried for 1 hr, a single 2nd instar black cutworm was added to each individual cabbage disk. A total of 20 insects were evaluate for each treatment. Insects were observed daily and scored as live or dead.
Series [10] deals with cabbage looper. Briefly: whole plant or invertebrate. As to conditions: Trichoplusia ni, foliar.
[11] abbreviates: 3rd instar, indoxacarb 0.53 mg/L, isolate O43NEW 1×10^6 cfu/mL.
Setting [12] is: 3rd instar, indoxacarb 0.53 mg/L, isolate O43NEW 1×10^4 cfu/mL.

For `CNC(=O)Oc1cccc2ccccc12` [Carbaryl], the “% Mort. Chem.” value in series [1] (cabbage looper, Carbaryl 100 mg/L, 2 DAT) was 21%; in [3] (tobacco budworm, Carbaryl 100 mg/L, 4 DAT) it was 50%. Further, the “LT50 Chem.” value in series [1] (cabbage looper, Carbaryl alone 100 mg/L) stood at 3.60 days; in series [3] (tobacco budworm, Carbaryl alone 100 mg/L), 4.06 days. The “% Mortality (1DAT)” value in series [1] (in vivo) came to 4%. For the same compound, the “% Mortality (2DAT)” value in [1] (in vivo) came out at 21%. Also, the “LT50 (95% confidence intervals) in days” value was 3.60 (3.12-4.17) days in series [1] (in vivo) and 4.06 (3.65-4.52) days in series [3] (in vivo). The figures for the “Average CFU” value in [2] (1.0 mg insecticide) and in series [2] (9.6 mg insecticide) were 456 CFU and 459 CFU, respectively. Moreover, the “% Mortality (4DAT)” value in [3] (in vivo) is given as 50%. In series [3] (in vivo), the “% Mortality (5DAT)” value is 65%.

Regarding `N#Cc1nn(-c2c(Cl)cc(C(F)(F)F)cc2Cl)c(N)c1[S+]([O-])C(F)(F)F` (centres unmarked) [Fipronil], the “LT50 (95% confidence intervals) in days” value in series [4] (3rd instar fall armyworm, O43NEW undiluted filtrate, alone or combined) is listed as 51.74 (34.99-79.58) days; in [5] (3rd instar, fipronil 4 mg/L, isolate O24G3R 1×10^5 cfu/mL), 6.71 (6.15-7.32) days; in series [5] (3rd instar, fipronil 4 mg/L, isolate O24KEK 1×10^5 cfu/mL), 6.71 (6.15-7.31) days; in [5] (3rd instar, fipronil 4 mg/L, isolate O333A4 1×10^5 cfu/mL), 6.71 (6.15-7.31) days. For the same compound, the “LT50 Chem.” value in [4] (Fall armyworm) was 51.74 days; in series [5] (Fipronil alone 4 mg/L), 8.86 days and 6.71 days. In addition, the “% Mort. Chem.” value in [4] (Fall armyworm, 8 DAT) turned out to be 0%; in series [5] (Fipronil 4 mg/L, 4 DAT (row with O24KEK)) it was 5%; in series [5] (Fipronil 4 mg/L, 4 DAT (row with O333A4)), 5%; in series [5] (Fipronil 4 mg/L, 5 DAT (row with O24G3R)), 21%; in series [5] (Fipronil 4 mg/L, 5 DAT (row with O43NEW)), 5%. In addition, the “LT50 (95% confidence intervals)” value in series [5] (3rd instar, fipronil 4 mg/L, isolate O43NEW 1×10^5 cfu/mL) is listed as 8.86 days. Further, the mortality at 4 µg/mL in [5] (96 h, read-out: % Mortality (4DAT), 3rd instar, fipronil 4 mg/L, isolate O24G3R 1×10^5 cfu/mL) worked out at 5%; in [5] (96 h, read-out: % Mortality (4DAT), 3rd instar, fipronil 4 mg/L, isolate O24KEK 1×10^5 cfu/mL), 5%; in series [5] (96 h, read-out: % Mortality (4DAT), 3rd instar, fipronil 4 mg/L, isolate O333A4 1×10^5 cfu/mL), 5%; in series [5] (120 h, read-out: % Mortality (5DAT), 3rd instar, fipronil 4 mg/L, isolate O24G3R 1×10^5 cfu/mL) it was 21%; in series [5] (120 h, read-out: % Mortality (5DAT), 3rd instar, fipronil 4 mg/L, isolate O24KEK 1×10^5 cfu/mL), 21%; in series [5] (120 h, read-out: % Mortality (5DAT), 3rd instar, fipronil 4 mg/L, isolate O43NEW 1×10^5 cfu/mL), 5%. Besides, the mortality at 4 µg/mL in series [5] (120 h, read-out: % Mortality (5DAT), 3rd instar, fipronil 4 mg/L, isolate O333A4 1×10^5 cfu/mL) was found to be 21%; in [5] (144 h, read-out: % Mortality (6DAT), 3rd instar, fipronil 4 mg/L, isolate O24KEK 1×10^5 cfu/mL), 39%; in series [5] (144 h, read-out: % Mortality (6DAT), 3rd instar, fipronil 4 mg/L, isolate O43NEW 1×10^5 cfu/mL), 20%; in series [5] (144 h, read-out: % Mortality (6DAT), 3rd instar, fipronil 4 mg/L, isolate O333A4 1×10^5 cfu/mL), 39%.

Turning to `COC(=O)N(C(=O)N1CO[C@@]2(C(=O)OC)Cc3cc(Cl)ccc3C2=N1)c1ccc(OC(F)(F)F)cc1` [Indoxacarb], the “LT50 (95% confidence intervals)” value in series [6] (2nd instar diamondback moth, O43NEW filtrate 1%, alone or combined) is recorded as 3.47 days; in series [5] (setting [11]) it was 9.65 days. Further, the “LT50 Chem.” value came to 3.47 days in series [6] (Diamondback moth); 11.98 days in series [7] (indoxacarb 0.53 mg/L); 9.65 days in series [5] (Indoxacarb alone 0.53 mg/L); 5.14 days in series [5] (Indoxacarb alone […]); 7.64 days in series [8] (black cutworm, Indoxacarb alone 0.53 mg/L); 10.99 days in series [9] (Black cutworm). The “% Mort. Chem.” value in series [7] (indoxacarb 0.53 mg/L, 9 DAT) came out at 25%; in series [5] (Indoxacarb 0.53 mg/L, 6 DAT) it was 10%; in series [8] (black cutworm, Indoxacarb 0.53 mg/L, 5 DAT) it was 0%; in [9] (Black cutworm, 9 DAT), 21%. The “% Mortality (2DAT)” value in [7] (cabbage looper, indoxacarb 0.53 mg/L, undiluted O43NEW filtrate, 2 DAT, Abbott's corrected) was 0%; in [9] (2nd instar black cutworm, O43NEW undiluted filtrate, alone or combined, 2 DAT, Abbott's corrected), 0%. Moreover, the “% Mortality (6DAT)” value was 15% in series [7] (cabbage looper, indoxacarb 0.53 mg/L, undiluted O43NEW filtrate, 6 DAT, Abbott's corrected); 10% in series [5] (setting [11]); 6% in [8] (setting [12]); 0% in series [9] (2nd instar black cutworm, O43NEW undiluted filtrate, alone or combined, 6 DAT, Abbott's corrected). Further, the “% Mortality (7DAT)” value in series [7] (cabbage looper, indoxacarb 0.53 mg/L, undiluted O43NEW filtrate, 7 DAT, Abbott's corrected) stood at 15%. Further, the “% Mortality (8DAT)” value is 25% in series [7] (cabbage looper, indoxacarb 0.53 mg/L, undiluted O43NEW filtrate, 8 DAT, Abbott's corrected) and 11% in series [9] (2nd instar black cutworm, O43NEW undiluted filtrate, alone or combined, 8 DAT, Abbott's corrected). Also, the “% Mortality (9DAT)” value in series [7] (cabbage looper, indoxacarb 0.53 mg/L, undiluted O43NEW filtrate, 9 DAT, Abbott's corrected) came out at 25%; in [9] (2nd instar black cutworm, O43NEW undiluted filtrate, alone or combined, 9 DAT, Abbott's corrected) it was 21%. Besides, the “% Mortality (12DAT)” value in [7] (cabbage looper, indoxacarb 0.53 mg/L, undiluted O43NEW filtrate, 12 DAT, Abbott's corrected) came to 61%. In addition, the “% Mortality (14DAT)” value in series [7] (cabbage looper, indoxacarb 0.53 mg/L, undiluted O43NEW filtrate, 14 DAT, Abbott's corrected) is given as 59%. Further, the “% Mortality (5DAT)” value is reported as 5% in series [5] (setting [11]) and 0% in series [8] (setting [12]). For the same compound, the “LT50 (95% confidence intervals) in days” value in [5] (3rd instar, indoxacarb […], isolate O23ZMJ 1×10^5 cfu/mL) is listed as 5.14 (4.67-5.66) days; in series [8] (setting [12]) it was 7.64 (7.01-8.32) days; in [9] (2nd instar black cutworm, O43NEW undiluted filtrate, alone or combined), 10.99 (9.75-12.42) days. Besides, in [8] (setting [12]), the “% Mortality (3DAT)” value is listed as 11%. Besides, the “% Mortality (4DAT)” value in series [8] (setting [12]) is listed as 6%. Also, the “Average CFU” value in series [2] (0.2 mg insecticide) is 452 CFU; in series [2] (1.1 mg insecticide), 477 CFU.

In the case of `CNC(=O)ON=C(C)SC` [Methomyl], the “LT50 Chem.” value in series [1] (cabbage looper, Methomyl alone 30 mg/L) was determined as 5.84 days. Further, the “% Mort. Chem.” value in [1] (in vivo) is recorded as 12%. Moreover, in [1] (in vivo), the “LT50 (95% confidence intervals) in days” value is reported as 5.84 (4.99-6.88) days. Further, the mortality at 30 µg/mL in [10] (24 h, read-out: % Mortality (1DAT)) turned out to be 4%; in series [10] (48 h, read-out: % Mortality (2DAT)) it was 12%. The “Average CFU” value in series [2] (0.3 mg insecticide) was determined as 192 CFU; in series [2] (3.4 mg insecticide) it was 0 CFU.

Turning to `O=C(NC(=O)c1c(F)cccc1F)Nc1ccc(OC(F)(F)C(F)OC(F)(F)F)c(Cl)c1` (centres unmarked) [Novaluron], the “LT50 Chem.” value turned out to be 7.31 days in series [7] (novaluron 1 mg/L); 7.55 days in [1] (cabbage looper, Novaluron alone 1 mg/L); 9.40 days in [8] (black cutworm, Novaluron alone […]). For the same compound, the “% Mort. Chem.” value in [7] (novaluron 1 mg/L, 6 DAT) is reported as 0%; in series [1] (cabbage looper, Novaluron 1 mg/L, 5 DAT), 11%. Besides, the “LT50 (95% confidence intervals) in days” value in series [1] (in vivo) was 7.55 (7.01-8.13) days; in series [8] (3rd instar, novaluron […], isolate O43NEW 1×10^4 cfu/mL), 9.40 (8.58-10.32) days. For the same compound, the mortality at 1 µg/mL in [10] (120 h, read-out: % Mortality (5DAT)) is 11%; in [10] (144 h, read-out: % Mortality (6DAT)), 21%. The entries for the “Average CFU” value in [2] (0.1 mg insecticide) and in series [2] (1.0 mg insecticide) were 528 CFU and 452 CFU, respectively.

(Values after patent US11716994B2, “Combinations of Yersinia entomophaga and pesticides or other substances” (priority 2017, dated 2023).)
